Patent publication US20090325964A1, “Piperazine Metabotropic Glutamate Receptor 5 (MGLUR5) Negative Allosteric Modulators For Anxiety/Depression” (Wyeth, priority 2008, published 2009)
Read-outs that look alike come from different tables or passages of the source. Blank lines part the entries; values can stand above or below the compound they belong to.

Target: T1, rat mGluR5 receptor (Rattus norvegicus, UniProt P31424)
T1 construct: expressed in transfected cells; host or cells: HEK-293
Test: [3H]-MPEP displacement binding assay, HEK-293 cell membranes expressing rat mGluR5
Conditions: for Ki: read-out: Median Ki; for IC50: no Ki given, read-out: IC50 (printed in the Median Ki column instead of a Ki)
In short: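 Membranes from HEK-293 cells expressing rat mGluR5 (12-25 μg protein), incubated 60 min at room temperature with 4 nM [3H]-MPEP in 50 mM Tris pH 7.5, then filtered. Nonspecific binding defined with 10 μM MPEP.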

[1] = 1 h, single point, @ 10 μm compound, Table 1A, read-out: PCT INHIB (%) @ 10 μm
[2] = [3H]-MPEP displacement, rat mGluR5
[3] = @ 10 μM compound, Biological Activity, Table 2A, read-out: PCT INHIB (%) @ 10 μM

T1 sequence (P31424 21-1203): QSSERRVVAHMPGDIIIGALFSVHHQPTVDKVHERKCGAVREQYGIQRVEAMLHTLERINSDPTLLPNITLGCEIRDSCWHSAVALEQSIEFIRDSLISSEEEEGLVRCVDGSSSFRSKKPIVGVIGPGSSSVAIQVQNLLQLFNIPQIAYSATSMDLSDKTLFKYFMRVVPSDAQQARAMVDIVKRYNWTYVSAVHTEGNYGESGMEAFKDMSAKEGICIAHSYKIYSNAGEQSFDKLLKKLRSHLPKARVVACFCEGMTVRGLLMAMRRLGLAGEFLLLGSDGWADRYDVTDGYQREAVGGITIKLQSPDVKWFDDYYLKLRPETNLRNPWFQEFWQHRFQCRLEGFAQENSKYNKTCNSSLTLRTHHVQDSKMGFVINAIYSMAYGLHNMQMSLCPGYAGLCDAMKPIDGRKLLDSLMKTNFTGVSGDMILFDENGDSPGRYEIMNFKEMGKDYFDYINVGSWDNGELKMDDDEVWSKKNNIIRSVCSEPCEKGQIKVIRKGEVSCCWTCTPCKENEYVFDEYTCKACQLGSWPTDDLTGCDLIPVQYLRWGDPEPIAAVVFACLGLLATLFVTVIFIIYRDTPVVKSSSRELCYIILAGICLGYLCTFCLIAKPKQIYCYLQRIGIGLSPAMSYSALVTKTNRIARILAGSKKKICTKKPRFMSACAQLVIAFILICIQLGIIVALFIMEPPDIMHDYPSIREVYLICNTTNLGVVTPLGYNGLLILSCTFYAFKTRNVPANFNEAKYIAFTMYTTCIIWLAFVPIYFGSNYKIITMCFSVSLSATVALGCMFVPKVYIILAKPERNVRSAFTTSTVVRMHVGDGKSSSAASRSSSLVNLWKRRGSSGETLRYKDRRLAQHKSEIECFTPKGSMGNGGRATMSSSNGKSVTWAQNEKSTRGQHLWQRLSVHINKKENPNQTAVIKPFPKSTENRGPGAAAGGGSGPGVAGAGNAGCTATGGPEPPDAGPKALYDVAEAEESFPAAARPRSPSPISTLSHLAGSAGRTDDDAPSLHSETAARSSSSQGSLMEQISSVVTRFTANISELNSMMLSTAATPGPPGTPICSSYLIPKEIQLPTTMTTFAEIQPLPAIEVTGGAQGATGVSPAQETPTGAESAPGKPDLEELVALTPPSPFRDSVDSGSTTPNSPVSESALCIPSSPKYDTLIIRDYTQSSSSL

inhibition at 10 µM [1]: 55%
Ki: 3.81 µM
Structure (SMILES): Cc1ccc(C)c(C#Cc2cc(C(=O)N3CCN(c4ccccn4)CC3)ccc2C)c1 [Compound 30, 1-{3-[(2,5-dimethylphenyl)ethynyl]-4-methylbenzoyl}-4-pyridin-2-ylpiperazine]

inhibition at 10 µM [1]: 0%
Structure (SMILES): COc1ccc(C(=O)N2CCN(c3ccccn3)CC2)cc1C#Cc1cc(C)c(C)cc1C [Compound 23, 1-{4-methoxy-3-[(2,4,5-trimethylphenyl)ethynyl]benzoyl}-4-pyridin-2-ylpiperazine]

inhibition at 10 µM [1]: 75%
Ki: 1.12 µM
Structure (SMILES): O=C(c1cccc(C#Cc2cccc(O)c2)c1)N1CCN(c2ccccn2)CC1 [Compound 6, 3-({3-[(4-pyridin-2-ylpiperazin-1-yl)carbonyl]phenyl}ethynyl)phenol]

inhibition at 10 µM [1]: 62%
Ki: 0.299 µM
Structure (SMILES): COc1ccc(C(=O)N2CCN(c3ccccn3)CC2)cc1C#Cc1cccc(N)c1 [Compound 34, 3-({2-methoxy-5-[(4-pyridin-2-ylpiperazin-1-yl)carbonyl]phenyl}ethynyl)aniline]

inhibition at 10 µM (single point, @ 10 μM compound, Table 3A, read-out: PCT INHIB (%) @ 10 μM): 0%
Structure (SMILES): Cc1cccc(COc2cccc(C(=O)N3CCN(c4ccccn4)CC3)c2)c1 [Compound 150, 1-{3-[(3-methylbenzyl)oxy]benzoyl}-4-pyridin-2-ylpiperazine]

Ki ([3H]-MPEP 4 nM, Table 4A): 0.813 µM
Structure (SMILES): O=C(c1cccc(COc2cccc(Cl)c2)c1)N1CCN(c2ccccn2)CC1 [Compound 168, 1-{3-[(3-chlorophenoxy)methyl]benzoyl}-4-pyridin-2-ylpiperazine]

inhibition at 10 µM (single point, @ 10 μM compound, Table 6, read-out: PCT INHIB (%) @ 10 μM): 0%
Structure (SMILES): C(#Cc1cccc(CN2CCN(c3ccccn3)CC2)c1)C1=CCCCC1 [Compound 178, 1-[3-(cyclohex-1-en-1-ylethynyl)benzyl]-4-pyridin-2-ylpiperazine]

The remaining lines, values behind:

Structure (SMILES): COc1ccc(C(=O)N2CCCN(c3ccc([N+](=O)[O-])cn3)CC2)cc1C#Cc1ccccn1 [Compound 215, 1-[4-methoxy-3-(pyridin-2-ylethynyl)benzoyl]-4-(5-nitropyridin-2-yl)-1,4-diazepane]
Ki [2]: 2.19 µM

Structure (SMILES): CCOc1ccc(C(=O)N2CCN(c3ncccc3Cl)CC2)cc1C#Cc1ccccn1 [Compound 321, 1-(3-chloropyridin-2-yl)-4-[4-ethoxy-3-(pyridin-2-ylethynyl)benzoyl]piperazine]
Ki [2]: 0.149 µM

Structure (SMILES): COc1ccc(C(=O)N2CCN(c3ncccn3)CC2)cc1C#Cc1cccc([N+](=O)[O-])c1 [Compound 357, 2-(4-{4-methoxy-3-[(3-nitrophenyl)ethynyl]benzoyl}piperazin-1-yl)pyrimidine]
Ki [2]: 0.239 µM

Structure (SMILES): N#Cc1cccnc1N1CCN(C(=O)c2cncc(C#Cc3ccccc3)c2)CC1 [Compound 135, 2-(4-{[5-(phenylethynyl)pyridin-3-yl]carbonyl}piperazin-1-yl)nicotinonitrile]
inhibition at 10 µM [3]: 28%

Structure (SMILES): N#Cc1cccnc1N1CCN(C(=O)c2ccnc(C#Cc3ccccc3)c2)CC1 [Compound 139, 2-{4-[2-(phenylethynyl)isonicotinoyl]piperazin-1-yl}nicotinonitrile]
inhibition at 10 µM [3]: 40%

Structure (SMILES): COc1cccc(N2CCN(C(=O)c3cccc(C#Cc4ccccc4)c3)CC2)c1 [Compound 81, 1-(3-methoxyphenyl)-4-[3-(phenylethynyl)benzoyl]piperazine]
inhibition at 10 µM [3]: 78%
Ki (Biological Activity, Table 2A): 3.39 µM

Structure (SMILES): COc1ccc(C(=O)N2CCN(c3ncccc3Cl)CC2)cc1C#Cc1ccc(OC(F)(F)F)cc1 [Compound 348, 1-(3-chloropyridin-2-yl)-4-(4-methoxy-3-{[4-(trifluoromethoxy)phenyl]ethynyl}benzoyl)piperazine]
IC50 [2]: > 10 µM

Structure (SMILES): O=C(c1cccc(C#Cc2ccccc2)c1)N1CCN(c2cccc(Cl)c2)CC1 [Compound 82, 1-(3-chlorophenyl)-4-[3-(phenylethynyl)benzoyl]piperazine]
inhibition at 10 µM [3]: 58%
Ki (Biological Activity, Table 2A): 2.77 µM

Structure (SMILES): COc1ccc(C(=O)N2CCN(c3ccc(F)cc3S(C)(=O)=O)CC2)cc1C#Cc1ccccn1 [Compound 240, 1-[4-fluoro-2-(methylsulfonyl)phenyl]-4-[4-methoxy-3-(pyridin-2-ylethynyl)benzoyl]piperazine]
IC50 [2]: > 10 µM
